From PubChem BioAssay AID248 (DTP/NCI, 2004)
Several values for one entry are separate records, joined by “and”; a condition that tells them apart may be missing. Identical values can stand only once. Toxic doses and inconclusive results are not listed. No stated cut-off is given here; in the data, active means T/C of 150% or more; inactive means T/C below 125%.

Test system: L1210 leukemia ip in BDF1 mice, survival T/C
Test: NCI In Vivo Anticancer Drug Screen. Data for tumor model L1210 Leukemia (intraperitoneal) in B6D2F1 (BDF1) mice
Conditions: endpoint: mean survival time, higher = longer survival
Outline: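 Transplantable tumor model; survival measured in treated vs vehicle control mice. Value = treated/control.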

[1] = dose: 50.0 mg/kg/injection, schedule: Q01DX009 (ip), vehicle: saline
[2] = dose: 400.0 mg/kg/injection, schedule: Q01DX009 (ip), vehicle: saline
[3] = dose: 100.0 mg/kg/injection, schedule: Q01DX001 (ip), vehicle: saline
[4] = dose: 200.0 mg/kg/injection, schedule: Q01DX001 (ip), vehicle: saline
[5] = dose: 400.0 mg/kg/injection, schedule: Q01DX001 (ip), vehicle: saline
[6] = dose: 50.0 mg/kg/injection, schedule: Q01DX001 (ip), vehicle: saline
[7] = dose: 100.0 mg/kg/injection, schedule: Q04DX003 (ip), vehicle: Klucel (hydroxypropylcellulose) (HPC)
[8] = dose: 200.0 mg/kg/injection, schedule: Q04DX003 (ip), vehicle: Klucel (hydroxypropylcellulose) (HPC)
[9] = dose: 400.0 mg/kg/injection, schedule: Q04DX003 (ip), vehicle: Klucel (hydroxypropylcellulose) (HPC)
[10] = dose: 100.0 mg/kg/injection, schedule: Q01DX009 (ip), vehicle: Klucel (hydroxypropylcellulose) (HPC)
[11] = dose: 200.0 mg/kg/injection, schedule: Q01DX009 (ip), vehicle: Klucel (hydroxypropylcellulose) (HPC)
[12] = dose: 400.0 mg/kg/injection, schedule: Q01DX009 (ip), vehicle: Klucel (hydroxypropylcellulose) (HPC)
[13] = dose: 100.0 mg/kg/injection, schedule: Q04DX003 (ip), vehicle: saline
[14] = dose: 200.0 mg/kg/injection, schedule: Q01DX001 (ip), vehicle: carboxymethylcellulose (CMC)
[15] = dose: 100.0 mg/kg/injection, schedule: Q01DX009 (ip), vehicle: saline
[16] = dose: 200.0 mg/kg/injection, schedule: Q01DX009 (ip), vehicle: saline

Measured: T/C

CCCCCCCCCCCCOC(=N)N1CCOCC1
inactive: dose: 11.1 mg/kg/injection, schedule: Q01DX Z (ip), vehicle: saline 102 % of control | dose: 16.6 mg/kg/injection, schedule: Q01DX Z (ip), vehicle: saline 102 % of control | dose: 25.0 mg/kg/injection, schedule: Q01DX Z (ip), vehicle: saline 98 % of control

CC1(C)N=C(N)N=C(N)N1c1ccc(OCC(=O)Nc2ccc(S(=O)(=O)F)cc2)c(Cl)c1
inactive: dose: 50.0 mg/kg/injection, schedule: Q01DX009 (ip), vehicle: carboxymethylcellulose (CMC) 106 % of control and 117 % of control | [1] 109 % of control | dose: 100.0 mg/kg/injection, schedule: Q01DX009 (ip), vehicle: carboxymethylcellulose (CMC) 114 % of control | dose: 400.0 mg/kg/injection, schedule: Q01DX009 (ip), vehicle: carboxymethylcellulose (CMC) 94 % of control | [2] 109 % of control

CNc1ccc(Nc2cc(S(=O)(=O)O)c(N)c3c2C(=O)c2ccccc2C3=O)cc1
inactive: [3] 110 % of control | [4] 98 % of control | [5] 93 % of control

CC[N+](CC)(CC)CCCNC(c1ccccc1)C(Cl)(Cl)Cl (stereo unspecified)
inactive: dose: 12.5 mg/kg/injection, schedule: Q01DX001 (ip), vehicle: saline 95 % of control | dose: 25.0 mg/kg/injection, schedule: Q01DX001 (ip), vehicle: saline 97 % of control | [6] 95 % of control

c1cc(Sc2ccc(OCC3CO3)cc2)ccc1OCC1CO1 (stereo unspecified)
inactive: dose: 100.0 mg/kg/injection, schedule: Q01DX001 (ip), vehicle: other 94 % of control | dose: 200.0 mg/kg/injection, schedule: Q01DX001 (ip), vehicle: other 97 % of control | dose: 400.0 mg/kg/injection, schedule: Q01DX001 (ip), vehicle: other 92 % of control

O=C1C(Cl)=C(Cl)C2(Cl)C1(Cl)C1(Cl)C(=O)C(Cl)=C(Cl)C12Cl (stereo unspecified)
inactive: dose: 100.0 mg/kg/injection, schedule: Q01DX001 (ip), vehicle: Klucel (hydroxypropylcellulose) (HPC) 99 % of control | [7] 104 % of control | dose: 200.0 mg/kg/injection, schedule: Q01DX001 (ip), vehicle: Klucel (hydroxypropylcellulose) (HPC) 97 % of control | [8] 98 % of control | dose: 400.0 mg/kg/injection, schedule: Q01DX001 (ip), vehicle: Klucel (hydroxypropylcellulose) (HPC) 94 % of control | [9] 96 % of control

COC(=O)C1CC=CC(C)C1C(=O)OC (stereo unspecified)
inactive: [10] 105 % of control | [11] 103 % of control | [12] 100 % of control

COC(=O)c1cccc(C)c1NC(=O)NCCCl
inactive: [7] 96 % of control | [8] 96 % of control | [9] 94 % of control

CC(C)C/C=N\N=C(N)N
inactive: dose: 15.0 mg/kg/injection, schedule: Q01DX Z (ip), vehicle: saline 103 % of control | dose: 30.0 mg/kg/injection, schedule: Q01DX Z (ip), vehicle: saline 113 % of control | dose: 60.0 mg/kg/injection, schedule: Q01DX Z (ip), vehicle: saline 104 % of control and 90 % of control | dose: 60.0 mg/kg/injection, schedule: Q01DX Z (sc), vehicle: saline 117 % of control | dose: 120.0 mg/kg/injection, schedule: Q01DX Z (ip), vehicle: saline 103 % of control | dose: 120.0 mg/kg/injection, schedule: Q01DX Z (sc), vehicle: saline 110 % of control

CCCCCCC(C)C1CCCCC1 (stereo unspecified)
inactive: dose: 100.0 mg/kg/injection, schedule: Q01DX001 (ip), vehicle: saline with Tween-80 96 % of control | dose: 200.0 mg/kg/injection, schedule: Q01DX001 (ip), vehicle: saline with Tween-80 93 % of control | dose: 400.0 mg/kg/injection, schedule: Q01DX001 (ip), vehicle: saline with Tween-80 93 % of control

CN(C)/C=N/N1CCCCCC1
inactive: [13] 98 % of control

CC(C)(C)c1cc(Br)c(O)c(C(=O)O)c1
inactive: [14] 98 % of control

O=C1CN(Br)C(=O)N1Br
inactive: [15] 105 % of control | [13] 98 % of control | [16] 107 % of control | dose: 200.0 mg/kg/injection, schedule: Q04DX003 (ip), vehicle: saline 105 % of control | dose: 400.0 mg/kg/injection, schedule: Q04DX003 (ip), vehicle: saline 100 % of control

C[CH2][Ge]([CH2]C)([CH2]C)[CH2]CCO
inactive: dose: 5.0 mg/kg/injection, schedule: Q04DX002 (ip), vehicle: saline with Tween-80 103 % of control | dose: 10.0 mg/kg/injection, schedule: Q04DX002 (ip), vehicle: saline with Tween-80 97 % of control | dose: 20.0 mg/kg/injection, schedule: Q04DX002 (ip), vehicle: saline with Tween-80 95 % of control | dose: 100.0 mg/kg/injection, schedule: Q04DX002 (ip), vehicle: saline with Tween-80 93 % of control | dose: 200.0 mg/kg/injection, schedule: Q04DX002 (ip), vehicle: saline with Tween-80 93 % of control

COc1ccc(C(C)(C)C#N)cc1
inactive: [6] 102 % of control | [3] 100 % of control | [4] 100 % of control | [5] 97 % of control

CC1([N+](=O)[O-])COP(=O)(NCc2ccccc2)OC1 (stereo unspecified)
inactive: dose: 50.0 mg/kg/injection, schedule: Q01DX001 (ip), vehicle: carboxymethylcellulose (CMC) 97 % of control | dose: 100.0 mg/kg/injection, schedule: Q01DX001 (ip), vehicle: carboxymethylcellulose (CMC) 107 % of control | [14] 109 % of control | dose: 400.0 mg/kg/injection, schedule: Q01DX001 (ip), vehicle: carboxymethylcellulose (CMC) 97 % of control

N#CCc1ccc2c(c1)Sc1ccccc1O2
inactive: [10] 94 % of control | [11] 100 % of control | [12] 93 % of control

CN(C)C=C(S(C)(=O)=O)S(C)(=O)=O
inactive: dose: 75.0 mg/kg/injection, schedule: Q04DX003 (ip), vehicle: saline 97 % of control | [15] 101 % of control | dose: 150.0 mg/kg/injection, schedule: Q04DX003 (ip), vehicle: saline 97 % of control | [16] 109 % of control | dose: 300.0 mg/kg/injection, schedule: Q04DX003 (ip), vehicle: saline 101 % of control | [2] 98 % of control

COC(=O)C(CCC1CCCCN1)(c1ccccc1)c1ccccc1 (stereo unspecified)
inactive: dose: 35.0 mg/kg/injection, schedule: Q01DX009 (ip), vehicle: saline 112 % of control and 119 % of control | [1] 120 % of control | dose: 110.0 mg/kg/injection, schedule: Q01DX009 (ip), vehicle: saline 96 % of control

CCCCC(CC)C(O)CC(O)CC (stereo unspecified)
inactive: dose: 100.0 mg/kg/injection, schedule: Q01DX009 (ip), vehicle: saline with Tween-80 92 % of control | dose: 200.0 mg/kg/injection, schedule: Q01DX009 (ip), vehicle: saline with Tween-80 92 % of control | dose: 400.0 mg/kg/injection, schedule: Q01DX009 (ip), vehicle: saline with Tween-80 95 % of control

Cc1cccc(Cl)c1NC(=O)Nc1c(C)n(C)n(-c2ccccc2)c1=O
inactive: [10] 100 % of control | [11] 102 % of control | [12] 100 % of control
